Laboratory results: PubChem BioAssay AID1963839 (Molecular Pharmacology Branch, DTP, NCI, 2024)

Test system: 817829-284-R-J1-PDC complex spheroid viability
Test: Anticancer human tumor 817829-284-R-J1-PDC patient-derived colon adenocarcinoma cell line growth inhibition [POLQ]
Details: for IC50: curve of first compound; for viability, T/C: stronger effect = lower value
Procedure: Multicellular complex tumor spheroid response to Polymerase (POL) inhibitors (novobiocin, ART-558, RP6685) in combination with a variety of drugs and investigational agents in selected tumor cell lines
The POL inhibitors (novobiocin, ART-558, and RP6685) were evaluated both individually and in combination with standard of care and investigational anticancer small molecules within a complex spheroid model of solid tumors. . Complex spheroids include a stromal component modeled by human endothelial cells (HUVEC) and fibroblasts modeled by human mesenchymal stem cells (MSCs). The concentration ranges selected for each drug and investigational agent were based upon clinically achievable concentrations if the clinical Cmax of the agent was known.
Compounds. The drugs and investigational agents: novobiocin (NSC847541), ART-558 (NSC835418), RP-6685 (NSC848927), peposertib (NSC802822), ceralasertib (NSC780249), elimusertib (NSC800525), camonsertib (NSC841442), AZD-1390 (NSC803789), olaparib (NSC753686), talazoparib (NSC767125), rucaparib (NSC756644), sotorasib (NSC818433), MRTX-1133 (NSC836407), SN-38 (NSC673596), topotecan (NSC609699), epotoside (NSC141540), doxorubicin (NSC123127), gemcitabine (NSC613327), 5-fluorouracil (NSC19893), paclitaxel (NSC125973), vemurafenib (NSC761431), MSA-2 (NSC828583), SN-011 (NSC837082), adavosertib (NSC754352), prexasertib (NSC758257), carboplatin (NSC241240) and oxaliplatin (NSC266046), were obtained from the National Cancer Institute (NCI) Developmental Therapeutics Program Chemical Repository (21). The FDA-approved anticancer drug set is available from the Developmental Therapeutics Program at https://dtp.cancer.gov/organization/dscb/obtaining/. […] The stock solutions were prepared in dimethyl sulfoxide (DMSO, Sigma-Aldrich, St. Louis, MO, cat. D2650), except for the platinum compounds which were prepared in saline (Quality Biological, Gaithersburg, MD, cat. 114-055-101), at 800-fold the tested concentration and stored at -70 degrees C prior to their use. All drugs and investigational agents were tested over a range starting from a high concentration at or near the clinical Cmax and decreasing in half-log increments. If the clinical Cmax for an agent had not been determined, the highest concentration tested was 10 microM, except for SN-38, which was tested at a high concentration of 1 microM.
Cell Culture. All cells were maintained in an incubator at 37 degrees C and 5% CO2 with 95% humidity. The PDC lines were cultured according to standard operating procedures established by the NCI PDMR (https://pdmr.cancer.gov). Table 3 of the manuscript, lists the cell lines along with the number of the three cell types plated to form the mct-spheroids and media for tumor cell growth. After thawing, all PDC lines, except 997537-175-T-J1-PDC and 415267-285-R-J2-PDC, were cultured in Matrigel-coated flasks prepared with a working solution of 1X Ham's F-12 nutrient mix, without supplementation (Thermo Fisher Scientific, cat. 11765054), 100 U/mL penicillin-streptomycin (Thermo Fisher Scientific, cat. 15140122), and 2.5% Matrigel (Corning Inc., Corning, NY, cat. 354248) for the first three passages. The two PDC lines 997537-175-T-J1-PDC and 415267-285-R-J2-PDC were cultured on uncoated flasks. The 857933-349-R-J2-PDC line was cultured in 6C/Colon 1B media containing advanced DMEM/F-12 (Thermo Fisher Scientific, cat. 12634028), 10 mM HEPES (Thermo Fisher Scientific, cat. 15630080), 1X GlutaMAX supplement (Thermo Fisher Scientific, cat. 35050061), 0.1 mg/mL primocin (InvivoGen, San Diego, CA, cat. ant-pm-2), 10% defined fetal bovine serum, heat inactivated (HyClone Laboratories Inc., Logan, UT, cat. SH30070.03HI), 50% L-WRN conditioned media (ATCC, cat. CRL-3276), 1.25 mM N-Acetyl-L-cysteine (Sigma-Aldrich, cat. A9165), 10 mM nicotinamide (Sigma-Aldrich, cat. N0636), 1X B-27 supplement (Thermo Fisher Scientific, cat. 17504044), 1X N-2 supplement (Thermo Fisher Scientific, cat. […]
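Also: spheroids exposed to compounds for 7 days.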
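For viability, T/C in this document: 100% = DMSO vehicle-treated spheroids.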

C#Cc1c(F)ccc2cc(O)cc(-c3ncc4c(N5CC6CCC(C5)N6)nc(OCC56CCCN5CC(F)C6)nc4c3F)c12 (configuration not stated) + Nc1ccc(C#CCN(C(=O)Cc2ncc(C(F)(F)F)cc2C(F)(F)F)c2ccc(F)cc2)nn1
IC50 (second compound 0.0316 µM): > 10 µM | IC50 (second compound 0.1 µM): > 10 µM | IC50 (second compound 0.316 µM): > 10 µM | IC50 (second compound 1 µM): > 10 µM | IC50 (second compound 3.16 µM): > 10 µM | IC50 (second compound 10 µM): > 10 µM | viability, T/C (second compound 0.0316 µM, first compound 0.0316 µM): 78.6% | viability, T/C (second compound 0.0316 µM, first compound 0.1 µM): 105% | viability, T/C (second compound 0.0316 µM, first compound 0.316 µM): 104% | viability, T/C (second compound 0.0316 µM, first compound 1 µM): 93.8% | viability, T/C (second compound 0.0316 µM, first compound 3.16 µM): 114% | viability, T/C (second compound 0.0316 µM, first compound 10 µM): 84.2% | viability, T/C (second compound 0.1 µM, first compound 0.0316 µM): 92.1% | viability, T/C (second compound 0.1 µM, first compound 0.1 µM): 87.9% | viability, T/C (second compound 0.1 µM, first compound 0.316 µM): 93% | viability, T/C (second compound 0.1 µM, first compound 1 µM): 92.4% | viability, T/C (second compound 0.1 µM, first compound 3.16 µM): 103% | viability, T/C (second compound 0.1 µM, first compound 10 µM): 92.7% | viability, T/C (second compound 0.316 µM, first compound 0.0316 µM): 101% | viability, T/C (second compound 0.316 µM, first compound 0.1 µM): 94.5% | viability, T/C (second compound 0.316 µM, first compound 0.316 µM): 105% | viability, T/C (second compound 0.316 µM, first compound 1 µM): 86.8% | viability, T/C (second compound 0.316 µM, first compound 3.16 µM): 116% | viability, T/C (second compound 0.316 µM, first compound 10 µM): 91.8% | viability, T/C (second compound 1 µM, first compound 0.0316 µM): 106% | viability, T/C (second compound 1 µM, first compound 0.1 µM): 88.4% | viability, T/C (second compound 1 µM, first compound 0.316 µM): 98.6% | viability, T/C (second compound 1 µM, first compound 1 µM): 91.6% | viability, T/C (second compound 1 µM, first compound 3.16 µM): 97.9% | viability, T/C (second compound 1 µM, first compound 10 µM): 101% | viability, T/C (second compound 3.16 µM, first compound 0.0316 µM): 97.5% | viability, T/C (second compound 3.16 µM, first compound 0.1 µM): 99.8% | viability, T/C (second compound 3.16 µM, first compound 0.316 µM): 101% | viability, T/C (second compound 3.16 µM, first compound 1 µM): 86.9% | viability, T/C (second compound 3.16 µM, first compound 3.16 µM): 93.2% | viability, T/C (second compound 3.16 µM, first compound 10 µM): 95.7% | viability, T/C (second compound 10 µM, first compound 0.0316 µM): 95.5% | viability, T/C (second compound 10 µM, first compound 0.1 µM): 102% | viability, T/C (second compound 10 µM, first compound 0.316 µM): 73.8% | viability, T/C (second compound 10 µM, first compound 1 µM): 102% | viability, T/C (second compound 10 µM, first compound 3.16 µM): 96.3% | viability, T/C (second compound 10 µM, first compound 10 µM): 80.4%
